Results as given in patent EP4389751A1, “HETEROCYCLIC COMPOUNDS AND USES THEREOF” (Kumquat Biosciences Inc., priority 2021, dated 2024).
Where two headings read alike, the source gives them in different places.

Key:
A549 cells = test: Cell proliferation assay (CellTiter-Glo), K-Ras G12S cells; assay type: cell-based; conditions: for IC50: Homo sapiens; for ratio of IC50 against a G12D cell line to IC50 against a G12S cell line: K-Ras G12D cell line such as GP2D relative to K-Ras G12S cell line such as A549, greater than 1, 2, 3, 4, 5, 10, 15 or even greater, 8640 min
In short: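 A549 cells (K-Ras G12S) in RPMI-1640 with 10% FBS, seeded in standard or ultra-low-attachment plates and dosed next day with a 10-point 3-fold series. Viability read about 6 days later by CellTiter-Glo luminescence. IC50 from four-parameter fit.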

K-Ras G12S = molecular target: T1, K-Ras G12S (Homo sapiens, UniProt P01116, G12S); test: HTRF assay of the K-Ras / SOS1 interaction; assay type: biochemical; conditions: IC50 (against K-Ras G12D) to IC50 (against K-Ras G12S)
T1 construct: made in house; host or cells: E. coli (e.g., BL21 (DE3))
In short: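 GST-K-Ras G12S with anti-GST-Eu donor and His-hSOS1 with anti-6His-XL665 acceptor in ~5 mM HEPES pH 7.4, ~150 mM NaCl, 1 mM DTT, 0.05% BSA, 0.0025% Igepal. Read after ~10 min or longer; IC50 from 665/620 nm ratio, duplicates at 10 µM down to 0.01 µM.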

[1] = A549, A549 cells (K-Ras G12S), bin ≤ 500 nM, read-out: Inhibition of A549 Cells (IC50)
[2] = A549, A549 cells (K-Ras G12S), bin 500 nM to 5 µM, read-out: Inhibition of A549 Cells (IC50)

T1 sequence (P01116 1-188 isoform P01116-2 G12S): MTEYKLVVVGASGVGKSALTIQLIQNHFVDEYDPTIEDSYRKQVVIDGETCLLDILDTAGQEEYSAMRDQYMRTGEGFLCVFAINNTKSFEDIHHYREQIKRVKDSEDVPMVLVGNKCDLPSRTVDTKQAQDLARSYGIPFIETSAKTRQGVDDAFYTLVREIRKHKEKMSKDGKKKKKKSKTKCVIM

Row | Compound | IC50 (A549 cells; [1]) | ratio of IC50 against a G12D cell line to IC50 against a G12S cell line (A549 cells) | IC50 (A549 cells; [2]) | Ratio of IC50 KRAS G12D vs. IC50 KRAS G12S (K-Ras G12S) | IC50 (A549 cells; A549, read-out: Inhibition of A549 Cells (IC50))
1 | N#Cc1c(N)sc2c(F)ccc(-c3c(Cl)cc4c(N5CCOC6(CN(C(=O)n7ccnn7)C6)C5)nc(OC[C@@]56CCCN5C[C@H](F)C6)nc4c3F)c12 [Compound A195, 4-(4-(2-(1H-1,2,3-triazole-1-carbonyl)-5-oxa-2,8-diazaspiro[3.5]nonan-8-yl)-6-chloro-8-fluoro-2-(((2R,7aS)-2-fluorotetrahydro-1H-pyrrolizin-7a(5H)-yl)methoxy)quinazolin-7-yl)-2-amino-7-fluorobenzo[b]thiophene-3-carbonitrile] | ≤ 0.5 µM |  |  | A (A: indicates that the ratio of IC50 against KrasG12D vs. IC50 against KrasG12S is 1-fold or greater) | 
2 | N#Cc1ccn(C(=O)N2C3CCC2CN(c2nc(OC[C@@]45CCCN4C[C@H](F)C5)nc4c(F)c(-c5ccc(F)c6sc(N)c(C#N)c56)c(Cl)cc24)C3)n1 [Compound A224, 1-(3-(7-(2-amino-3-cyano-7-fluorobenzo[b]thiophen-4-yl)-6-chloro-8-fluoro-2-(((2R,7aS)-2-fluorotetrahydro-1H-pyrrolizin-7a(5H)-yl)methoxy)quinazolin-4-yl)-3,8-diazabicyclo[3.2. 1]octane-8-carbonyl)-1H-pyrazole-3-carbonitrile] |  |  | 0.5 to 5 µM | A (A: indicates that the ratio of IC50 against KrasG12D vs. IC50 against KrasG12S is 1-fold or greater) | 
3 | N#Cc1c(N)sc2c(F)ccc(-c3c(Cl)cc4c(N[C@H]5C[C@H]6CC[C@@H](C5)N6C(=O)n5cncn5)nc(OC[C@@]56CCCN5C[C@H](F)C6)nc4c3F)c12 [Compound A257, 4-(4-(((1R,3r,5S)-8-(1H-1,2,4-triazole-1-carbonyl)-8-azabicyclo[3.2.1]octan-3-yl)amino)-6-chloro-8-fluoro-2-(((2R,7aS)-2-fluorotetrahydro-1H-pyrrolizin-7 a(5H)-yl)methoxy)quinazolin-7-yl)-2-amino-7-fluorobenzo[b]thiophene-3-carbonitrile] |  |  |  | A (A: indicates that the ratio of IC50 against KrasG12D vs. IC50 against KrasG12S is 1-fold or greater) | 0.5 to 5 µM
4 | N#Cc1c(N)sc2c(F)ccc(-c3c(Cl)cc4c(N5CCC6(CN(C(=O)n7cncn7)C6)C5)nc(OC[C@@]56CCCN5C[C@H](F)C6)nc4c3F)c12 [Compound A277, 4-(4-(2-(1H-1,2,4-triazole-1-carbonyl)-2,6-diazaspiro[3.4]octan-6-yl)-6-chloro-8-fluoro-2-(((2R,7aS)-2-fluorotetrahydro-1H-pyrrolizin-7a(5H)-yl)methoxy)quinazolin-7-yl)-2-amino-7-fluorobenzo[b]thiophene-3-carbonitrile] | ≤ 0.5 µM | greater than 1 |  | A (A: indicates that the ratio of IC50 against KrasG12D vs. IC50 against KrasG12S is 1-fold or greater) | 
5 | Cc1nc(C)n(C(=O)N2CC3(C2)CN(c2nc(OC[C@@]45CCCN4C[C@H](F)C5)nc4c(F)c(-c5ccc(F)c6sc(N)c(C#N)c56)c(Cl)cc24)CCO3)n1 [Compound A283, 2-amino-4-(6-chloro-4-(2-(3,5-dimethyl-1H-1,2,4-triazole-1-carbonyl)-5-oxa-2,8-diazaspiro[3.5]nonan-8-yl)-8-fluoro-2-(((2R,7aS)-2-fluorotetrahydro-1H-pyrrolizin-7a(5H)-yl)methoxy)quinazolin-7-yl)-7-fluorobenzo[b]thiophene-3-carbonitrile] | ≤ 0.5 µM |  |  | A (A: indicates that the ratio of IC50 against KrasG12D vs. IC50 against KrasG12S is 1-fold or greater) | 
6 | N#Cc1c(N)sc2c(F)ccc(-c3c(Cl)cc4c(N5CC6(CCCCN(C(=O)n7cncn7)C6)C5)nc(OC[C@@]56CCCN5C[C@H](F)C6)nc4c3F)c12 [Compound A285, 4-(4-(6-(1H-1,2,4-triazole-1-carbonyl)-2,6-diazaspiro[3.6]decan-2-yl)-6-chloro-8-fluoro-2-(((2R,7aS)-2-fluorotetrahydro-1H-pyrrolizin-7a(5H)-yl)methoxy)quinazolin-7-yl)-2-amino-7-fluorobenzo[b]thiophene-3-carbonitrile] | ≤ 0.5 µM |  |  | A (A: indicates that the ratio of IC50 against KrasG12D vs. IC50 against KrasG12S is 1-fold or greater) | 
7 | C#Cc1c(F)ccc2cc(O)cc(-c3ncc4c(N5CCOCC6(CN(C(=O)n7cnc(C)n7)C6)C5)nc(OC[C@@]56CCCN5C[C@H](F)C6)nc4c3F)c12 [Compound A298, (9-(7-(8-ethynyl-7-fluoro-3-hydroxynaphthalen-1-yl)-8-fluoro-2-(((2R,7aS)-2-fluorotetrahydro-1H-pyrrolizin-7a(5H)-yl)methoxy)pyrido[4,3-d]pyrimidin-4-yl)-6-oxa-2,9-diazaspiro[3.6]decan-2-yl)(3-methyl-1H-1,2,4-triazol-1-yl)methanone] |  | greater than 1 | 0.5 to 5 µM | A (A: indicates that the ratio of IC50 against KrasG12D vs. IC50 against KrasG12S is 1-fold or greater) | 

Further lines, with some results ahead:

Row | IC50 (A549 cells; [1]) | ratio of IC50 against a G12D cell line to IC50 against a G12S cell line (A549 cells) | IC50 (A549 cells; [2]) | Compound | Ratio of IC50 KRAS G12D vs. IC50 KRAS G12S (K-Ras G12S) | IC50 (A549 cells; A549, read-out: Inhibition of A549 Cells (IC50))
8 | ≤ 0.5 µM | greater than 1 |  | N#Cc1c(N)sc2c(F)ccc(-c3c(Cl)cc4c(N5CCC6C5CN6C(=O)n5cncn5)nc(OC[C@@]56CCCN5C[C@H](F)C6)nc4c3F)c12 (stereo partly drawn) [Compound A183, 4-(4-(6-(1H-1,2,4-triazole-1-carbonyl)-2,6-diazabicyclo[3.2.0]heptan-2-yl)-6-chloro-8-fluoro-2-(((2R,7aS)-2-fluorotetrahydro-1H-pyrrolizin-7a(5H)-yl)methoxy)quinazolin-7-yl)-2-amino-7-fluorobenzo[b]thiophene-3-carbonitrile] | A (A: indicates that the ratio of IC50 against KrasG12D vs. IC50 against KrasG12S is 1-fold or greater) | 
9 | ≤ 0.5 µM |  |  | Cc1nc(C)n(C(=O)N2CC3(COCCN(c4nc(OC[C@@]56CCCN5C[C@H](F)C6)nc5c(F)c(-c6ccc(F)c7sc(N)c(C#N)c67)c(Cl)cc45)C3)C2)n1 [Compound A185, 2-amino-4-(6-chloro-4-(2-(3,5-dimethyl-1H-1,2,4-triazole-1-carbonyl)-6-oxa-2,9-diazaspiro[3.6]decan-9-yl)-8-fluoro-2-(((2R,7aS)-2-fluorotetrahydro-1H-pyrrolizin-7a(5H)-yl)methoxy)quinazolin-7-yl)-7-fluorobenzo[b]thiophene-3-carbonitrile] | A (A: indicates that the ratio of IC50 against KrasG12D vs. IC50 against KrasG12S is 1-fold or greater) | 
10 |  |  | 0.5 to 5 µM | Nc1nc2c(-c3c(Cl)cc4c(N5CCCN(C(=O)n6cncn6)CC5)nc(OC[C@@]56CCCN5C[C@H](F)C6)nc4c3F)ccc(F)c2s1 [Compound A191, (4-(7-(2-amino-7-fluorobenzo[d]thiazol-4-yl)-6-chloro-8-fluoro-2-(((2R,7aS)-2-fluorotetrahydro-1H-pyrrolizin-7a(5H)-yl)methoxy)quinazolin-4-yl)-1,4-diazepan-1-yl)(1H-1,2,4-triazol-1-yl)methanone] | A (A: indicates that the ratio of IC50 against KrasG12D vs. IC50 against KrasG12S is 1-fold or greater) | 
11 | ≤ 0.5 µM | greater than 1 |  | N#Cc1c(N)sc2c(F)ccc(-c3c(Cl)cc4c(N5CCOC6CN(C(=O)n7cncn7)CC65)nc(OC[C@@]56CCCN5C[C@H](F)C6)nc4c3F)c12 (stereo partly drawn) [Compound A218, 4-(4-(6-(1H-1,2,4-triazole-1-carbonyl)hexahydropyrrolo [3,4-b][1,4]oxazin-4(4aH)-yl)-6-chloro-8-fluoro-2-(((2R,7aS)-2-fluorotetrahydro-1H-pyrrolizin-7a(5H)-yl)methoxy)quinazolin-7-yl)-2-amino-7-fluorobenzo[b]thiophene-3-carbonitrile] | A (A: indicates that the ratio of IC50 against KrasG12D vs. IC50 against KrasG12S is 1-fold or greater) | 
12 | ≤ 0.5 µM |  |  | CN(C)C1CN(c2nc(N3CCOC4(CN(C(=O)n5cncn5)C4)C3)c3cc(Cl)c(-c4ccc(F)c5sc(N)c(C#N)c45)c(F)c3n2)C1 [Compound A256, 4-(4-(2-(1H-1,2,4-triazole-1-carbonyl)-5-oxa-2,8-diazaspiro[3.5]nonan-8-yl)-6-chloro-2-(3-(dimethylamino)azetidin-1-yl)-8-fluoroquinazolin-7-yl)-2-amino-7-fluorobenzo[b]thiophene-3-carbonitrile] | A (A: indicates that the ratio of IC50 against KrasG12D vs. IC50 against KrasG12S is 1-fold or greater) | 
13 | ≤ 0.5 µM |  |  | N#Cc1c(N)sc2c(F)ccc(-c3c(Cl)cc4c(OC5CCCCN(C(=O)n6cncn6)C5)nc(OC[C@@]56CCCN5C[C@H](F)C6)nc4c3F)c12 (stereo partly drawn) [Compound A258, 4-(4-((1-(1H-1,2,4-triazole-1-carbonyl)azepan-3-yl)oxy)-6-chloro-8-fluoro-2-(((2R,7aS)-2-fluorotetrahydro-1H-pyrrolizin-7a(5H)-yl)methoxy)quinazolin-7-yl)-2-amino-7-fluorobenzo[b]thiophene-3-carbonitrile] | A (A: indicates that the ratio of IC50 against KrasG12D vs. IC50 against KrasG12S is 1-fold or greater) | 
